What all share (assay): MIC panel of pathogens, Table 4
Holding throughout (assay type): cell-based

For one experiment, the system named is A. baumannii. The note with it: Acinetobacter baumannii.
The next experiment has as its system S. aureus (MSSA). The note with it: Staphylococcus aureus.
The subject of another experiment is P. aeruginosa. As to conditions: Pseudomonas aeruginosa.

For `CCCCCC[N+](C)(C)CCCCCCOc1cc(/C=C/c2cc(OCCCCCC[N+](C)(C)CCCCCC)cc(OCCCCCC[N+](C)(C)CCCCCC)c2)cc(OCCCCCC[N+](C)(C)CCCCCC)c1` [Formula E], the MIC against A. baumannii is 4 µg/mL; with S. aureus (MSSA), 1 µg/mL; with P. aeruginosa, 8 µg/mL.
